Several values for one entry are separate records, joined by “and”; a condition that tells them apart may be missing. Equal entries are not always repeated.

Consider 1 molecule from paper PMC8766756, “Insights on Cancer Cell Inhibition, Subcellular Activities, and Kinase Profile of Phenylacetamides Pending 1H-Imidazol-5-One Variants” (Frontiers in Pharmacology, 2022).

Common to all, as to assay: PamChip tyrosine kinase microarray
Assay type in all cases: biochemical
Settings in all cases: 0.1 µM, HL60 lysate

In one assay the target is T1, EphA3 (P29320) (Homo sapiens, UniProt P29320).
T1 construct: purchased PamGene (PamChip PTK array, Upstream Kinase Analysis)
T1 sequence (P29320 21-983): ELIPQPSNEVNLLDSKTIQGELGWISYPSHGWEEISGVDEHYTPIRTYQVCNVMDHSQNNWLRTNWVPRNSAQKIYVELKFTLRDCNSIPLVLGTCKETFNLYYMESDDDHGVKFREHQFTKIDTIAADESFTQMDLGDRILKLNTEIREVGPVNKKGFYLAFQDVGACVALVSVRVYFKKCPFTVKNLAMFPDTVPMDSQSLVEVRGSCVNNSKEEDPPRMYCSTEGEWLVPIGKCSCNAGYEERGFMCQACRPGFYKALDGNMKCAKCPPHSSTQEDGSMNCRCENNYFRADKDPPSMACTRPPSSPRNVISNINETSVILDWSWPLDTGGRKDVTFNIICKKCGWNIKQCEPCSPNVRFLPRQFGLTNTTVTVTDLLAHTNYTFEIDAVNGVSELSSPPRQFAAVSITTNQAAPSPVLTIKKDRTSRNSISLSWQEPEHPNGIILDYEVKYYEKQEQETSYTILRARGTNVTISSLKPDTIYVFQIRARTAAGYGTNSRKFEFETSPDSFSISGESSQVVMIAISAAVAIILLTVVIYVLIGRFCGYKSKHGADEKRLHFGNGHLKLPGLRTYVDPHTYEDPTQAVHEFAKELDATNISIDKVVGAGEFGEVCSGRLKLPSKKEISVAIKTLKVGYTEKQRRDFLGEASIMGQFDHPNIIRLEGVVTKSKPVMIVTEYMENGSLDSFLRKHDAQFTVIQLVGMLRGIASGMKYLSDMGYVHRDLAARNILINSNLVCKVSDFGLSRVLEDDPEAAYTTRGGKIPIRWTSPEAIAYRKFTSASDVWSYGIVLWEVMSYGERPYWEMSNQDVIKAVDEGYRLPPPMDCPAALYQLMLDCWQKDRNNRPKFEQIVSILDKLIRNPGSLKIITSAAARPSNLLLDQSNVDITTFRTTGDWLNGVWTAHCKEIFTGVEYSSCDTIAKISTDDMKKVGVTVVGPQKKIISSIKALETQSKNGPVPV
The procedure, abridged:
(§1)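 HL60 (AML) cell lysate was spiked with compound at 0.001, 0.01, 0.1, 1, 10 and 50 µM, or 2% v/v DMSO as control, then profiled in technical replicates on a tyrosine kinase peptide array of 196 phosphosites. Kinase activity was inferred from peptide-set changes using an upstream kinase tool.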

A further assay concerns the target T2, EphA5 (P54756) (Homo sapiens, UniProt P54756).
T2 construct: purchased PamGene (PamChip PTK array, Upstream Kinase Analysis)
The procedure, abridged:
as §1

A further assay deals with T3, IGF1R (P08069) (Homo sapiens, UniProt P08069).
T3 construct: purchased PamGene (PamChip PTK array, Upstream Kinase Analysis)
T3 sequence (P08069 31-1367): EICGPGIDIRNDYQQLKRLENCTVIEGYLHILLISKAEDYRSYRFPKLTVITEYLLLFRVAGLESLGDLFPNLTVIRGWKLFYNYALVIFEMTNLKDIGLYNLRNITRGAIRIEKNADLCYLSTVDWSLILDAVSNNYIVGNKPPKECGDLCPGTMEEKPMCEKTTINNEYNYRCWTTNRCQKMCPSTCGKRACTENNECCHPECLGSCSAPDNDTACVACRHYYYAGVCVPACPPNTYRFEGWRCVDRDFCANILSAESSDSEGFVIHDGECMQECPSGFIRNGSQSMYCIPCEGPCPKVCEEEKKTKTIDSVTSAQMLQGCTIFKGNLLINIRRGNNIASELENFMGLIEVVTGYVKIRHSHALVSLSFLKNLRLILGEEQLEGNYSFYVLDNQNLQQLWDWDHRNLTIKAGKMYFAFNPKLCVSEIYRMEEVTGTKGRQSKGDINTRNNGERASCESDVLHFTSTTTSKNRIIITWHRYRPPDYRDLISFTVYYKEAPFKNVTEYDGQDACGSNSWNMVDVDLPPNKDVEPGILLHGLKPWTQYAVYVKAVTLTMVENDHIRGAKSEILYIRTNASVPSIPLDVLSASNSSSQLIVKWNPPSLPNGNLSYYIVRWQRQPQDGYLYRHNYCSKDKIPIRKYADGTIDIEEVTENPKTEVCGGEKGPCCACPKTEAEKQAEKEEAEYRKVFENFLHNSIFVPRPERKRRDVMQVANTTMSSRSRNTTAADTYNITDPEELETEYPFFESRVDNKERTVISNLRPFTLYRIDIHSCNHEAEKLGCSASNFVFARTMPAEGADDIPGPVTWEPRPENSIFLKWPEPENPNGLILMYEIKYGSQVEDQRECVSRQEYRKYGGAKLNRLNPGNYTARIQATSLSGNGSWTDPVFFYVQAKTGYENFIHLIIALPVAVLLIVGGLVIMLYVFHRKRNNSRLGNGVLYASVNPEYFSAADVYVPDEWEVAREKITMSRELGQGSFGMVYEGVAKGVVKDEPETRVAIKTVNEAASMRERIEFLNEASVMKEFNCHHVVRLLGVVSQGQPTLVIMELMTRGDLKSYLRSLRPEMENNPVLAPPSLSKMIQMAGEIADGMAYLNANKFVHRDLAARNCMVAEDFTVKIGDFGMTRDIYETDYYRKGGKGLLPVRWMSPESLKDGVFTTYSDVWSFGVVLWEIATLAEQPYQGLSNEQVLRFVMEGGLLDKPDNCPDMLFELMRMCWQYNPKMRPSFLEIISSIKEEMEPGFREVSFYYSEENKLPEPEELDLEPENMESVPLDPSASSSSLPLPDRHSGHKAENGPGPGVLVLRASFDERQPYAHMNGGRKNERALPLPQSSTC
The procedure, abridged: as §1

A further assay addresses T4, Lck (P06239) (Homo sapiens, UniProt P06239).
T4 construct: purchased PamGene (PamChip PTK array, Upstream Kinase Analysis)
The procedure, abridged: as §1

T2 sequence (P54756 25-1037): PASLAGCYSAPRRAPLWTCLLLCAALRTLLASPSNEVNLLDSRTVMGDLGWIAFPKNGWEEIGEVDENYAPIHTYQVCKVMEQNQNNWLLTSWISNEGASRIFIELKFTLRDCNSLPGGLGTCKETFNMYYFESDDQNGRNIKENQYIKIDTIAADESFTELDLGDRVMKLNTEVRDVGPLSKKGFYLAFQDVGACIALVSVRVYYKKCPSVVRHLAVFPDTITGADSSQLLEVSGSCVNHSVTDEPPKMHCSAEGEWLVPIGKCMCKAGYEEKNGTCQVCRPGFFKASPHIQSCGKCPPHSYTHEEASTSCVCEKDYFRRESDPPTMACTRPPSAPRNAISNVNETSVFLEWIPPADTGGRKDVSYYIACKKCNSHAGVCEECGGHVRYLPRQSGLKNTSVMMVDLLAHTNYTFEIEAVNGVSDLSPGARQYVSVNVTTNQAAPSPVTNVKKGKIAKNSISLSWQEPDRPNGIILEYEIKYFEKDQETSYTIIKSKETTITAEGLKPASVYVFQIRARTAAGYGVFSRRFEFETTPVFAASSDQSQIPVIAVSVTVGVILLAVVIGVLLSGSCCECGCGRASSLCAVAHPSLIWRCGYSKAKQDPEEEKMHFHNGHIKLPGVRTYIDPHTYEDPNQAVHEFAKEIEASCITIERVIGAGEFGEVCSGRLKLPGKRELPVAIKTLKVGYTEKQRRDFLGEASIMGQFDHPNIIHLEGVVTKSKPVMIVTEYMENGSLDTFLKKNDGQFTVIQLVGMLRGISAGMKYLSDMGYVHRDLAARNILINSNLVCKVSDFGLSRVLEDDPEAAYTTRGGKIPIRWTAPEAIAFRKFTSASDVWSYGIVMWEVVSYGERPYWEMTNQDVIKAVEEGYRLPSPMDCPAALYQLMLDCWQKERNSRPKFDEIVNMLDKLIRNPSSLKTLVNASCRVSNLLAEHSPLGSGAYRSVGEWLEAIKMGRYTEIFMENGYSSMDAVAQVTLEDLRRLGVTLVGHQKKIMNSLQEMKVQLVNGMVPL
T4 sequence (P06239 whole entry): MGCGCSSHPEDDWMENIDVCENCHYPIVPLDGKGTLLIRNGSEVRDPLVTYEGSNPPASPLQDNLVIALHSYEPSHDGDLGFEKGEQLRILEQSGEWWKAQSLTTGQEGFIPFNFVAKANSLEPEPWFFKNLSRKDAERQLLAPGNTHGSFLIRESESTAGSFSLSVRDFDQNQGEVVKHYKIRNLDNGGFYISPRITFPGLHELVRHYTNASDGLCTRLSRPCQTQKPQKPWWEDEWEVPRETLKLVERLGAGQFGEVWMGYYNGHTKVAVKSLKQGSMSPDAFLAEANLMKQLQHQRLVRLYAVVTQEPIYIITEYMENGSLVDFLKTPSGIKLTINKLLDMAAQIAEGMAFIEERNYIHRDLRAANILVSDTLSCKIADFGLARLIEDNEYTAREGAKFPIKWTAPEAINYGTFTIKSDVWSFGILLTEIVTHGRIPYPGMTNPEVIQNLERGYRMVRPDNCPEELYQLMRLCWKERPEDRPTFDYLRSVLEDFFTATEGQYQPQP

In the case of `COc1ccc(/C=C2\N=C(C)N(c3ccc(CC(=O)NCc4ccccc4)cc3)C2=O)cc1` [Compound 4c, (Z)-N-Benzyl-2-(4-(4-(4-methoxybenzylidene)-2-methyl-5-oxo-4,5-dihydro-1H-imidazol-1-yl)phenyl)acetamide], the “Mean Final score (Kinase score)” value on EphA3 (P29320) was 1.273; at EphA5 (P54756), 2.0125; at IGF1R (P08069), 2.173; at Lck (P06239) (listed as KIM-161), 2.76 and 2.758. Besides, the “Mean Kinase Statistic” value was -0.7527 at EphA3 (P29320), -1.181 at EphA5 (P54756) and -1.034 at IGF1R (P08069). In addition, the “Mean Significance Score” value at EphA3 (P29320) is given as 1.23; on EphA5 (P54756) it was 1.675; at IGF1R (P08069), 2.048; at Lck (P06239), 2.048. Also, the “Mean Specificity Score” value on EphA3 (P29320) was 0.04291; at EphA5 (P54756) it was 0.3238; at IGF1R (P08069), 0.1033; on Lck (P06239) it was 0.6669.
